Laboratory results published in ChEMBL document CHEMBL1123138 (J Med Chem, 1985).

System: Rattus norvegicus
Experiment: Effective dose required to inhibit sorbitol accumulation in sciatic nerves of streptozotocinized rats administered perorally
Type: functional, Sciatic nerve

O=C1NC(=O)[C@@]2(CCOc3ccc(F)cc32)N1 (stereo in doubt; form 1) [SORBINIL]
ED50: 0.25 mg/kg

O=C1NC(=O)[C@@]2(CCOc3ccc(F)cc32)N1 (stereo in doubt; form 2) [SORBINIL]
ED50: 25 mg/kg
